# Laboratory results: US10197581B2, “Vitamin D assays” (Enzo Life Sciences, Inc., priority 2013, dated 2019)
# Where a name gives a salt, the structure may show the parent alone. Read-outs that look alike come from different tables or passages of the source.
# What was measured:
# [1] = target: T1, vitamin D binding protein (DBP) (Homo sapiens, UniProt P02774); assay: Screening of dissociation buffer components (release reagents) in the 25OHD ELISA; type: biochemical; settings: for release of 25OHD from DBP and maintaining 25OHD availability for antibody binding / tolerance in the assay: component of dissociation buffer; for effect towards dissociation of 25OHD from DBP: earlier experiments
# T1 sequence (P02774 17-474): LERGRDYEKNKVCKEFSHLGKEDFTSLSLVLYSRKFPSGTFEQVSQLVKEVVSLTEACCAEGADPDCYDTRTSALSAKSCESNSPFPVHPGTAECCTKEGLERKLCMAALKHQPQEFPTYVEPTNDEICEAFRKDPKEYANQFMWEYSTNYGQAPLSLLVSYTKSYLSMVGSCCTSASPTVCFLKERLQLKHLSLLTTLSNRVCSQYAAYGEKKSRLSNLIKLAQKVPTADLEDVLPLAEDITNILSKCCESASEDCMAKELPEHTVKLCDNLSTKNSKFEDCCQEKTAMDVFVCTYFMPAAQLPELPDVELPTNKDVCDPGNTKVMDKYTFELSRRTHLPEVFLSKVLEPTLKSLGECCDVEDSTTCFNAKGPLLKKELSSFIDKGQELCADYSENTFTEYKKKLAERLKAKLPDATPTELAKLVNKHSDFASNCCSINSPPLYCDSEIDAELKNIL
# Method: In order to optimize the ELISA 25OHD assay, components of the dissociation buffer, the assay buffer and the wash buffer, and conditions for performing various steps in the protocol were tested in the assay. Various reagents were tested alone or in combination for their effects on dissociation of 25OHD from DBP.
# In addition, various types and concentrations of buffer salts (e.g., Tris, MES, citrate) were used in the dissociation buffers, assay buffers and wash buffers. Dissociation and wash buffers having a pH from 4-8 were tested. Dissocation was performed at different temperatures (RT, 37° C., 65° C.) and in different incubation vessels (polypropylene or polystyrene) and the competitive ELISA was performed using various different 25OHD conjugates.
# [2] = tested on: sheep monoclonal anti-25OHD antibody (Bioventix); assay: Cross-reactivity of vitamin D metabolites in the optimized 25OHD competitive ELISA; type: binding; settings: for % cross-reactivity: determined at the OD corresponding to the ED50 of 25OHD3; for ED50: optimized 25OHD ELISA, metabolite serially diluted in Tris buffer
# Method: Ten vitamin D metabolites were tested for cross-reactivity in the optimized 25OHD ELISA assay described above. New concentrated stock solutions were prepared from dry chemicals for all metabolites. For cross-reactivity testing, each metabolite was prepared and serially diluted in a Tris buffer. Metabolites and the concentration ranges tested are in Table 3. The metabolite solutions were used as samples and mixed with dissociation buffer and the assay carried out as previously described.
# [3] = type: physicochemical
Compound,release of 25OHD from DBP and maintaining 25OHD availability for antibody binding [1],% cross-reactivity [2],ED50 [2],further results
casein,,,,effect on absorbance signal and dynamic signal range ([1]; protein at or above 0.5% in the assay): negatively impacted absorbance signal and dynamic signal range
"CCCCCCCCCCCC(=O)OCCOCCOCCOCCOCCOCCOCCOCCOCCOCCOCCOCCOCCOCCOCCOCCOCCOCCOCCOCCOCC(OCCOCCOCCOCCOCCOCCOCCOCCOCCOCCOCCOCCOCCOCCOCCOCCOCCOCCOCCOCCO)C1OCC(OCCOCCOCCOCCOCCOCCOCCOCCOCCOCCOCCOCCOCCOCCOCCOCCOCCOCCOCCOCCO)C1OCCOCCOCCOCCOCCOCCOCCOCCOCCOCCOCCOCCOCCOCCOCCOCCOCCOCCOCCOCCO (stereo not drawn) [Tween-20, Polysorbate 20]",did not aid in dissociating 25OHD from DBP,,,
"CCCCC/C=C\C/C=C\C/C=C\C/C=C\CCCC(=O)O [Arachidonic acid, arachidonic acid]",did not aid in dissociating 25OHD from DBP,,,
methyl β-cyclodextrin,effective and generally compatible with the assay,,,preventing 25OHD re-uptake by DBP or binding to other cellular proteins/lipids [1]: appeared to be effective; effect towards dissociation of 25OHD from DBP [1]: did not show a large effect
C=C1CC[C@@H](O)C/C1=C/C=C1\CCC[C@]2(C)[C@@H]([C@H](C)CCCC(C)(C)O)CC[C@@H]12 [3-epi-25(OH)VitaminD3],,50.87%,0.00344 µg/mL,% cross-reactivity ([2]; listed as 3-epimer of 25(OH)VitaminD3): 51%
C=C1CC[C@H](O)C/C1=C/C=C1\CCC[C@]2(C)[C@@H]([C@H](C)CCCC(C)C)CC[C@@H]12 [Vitamin D3],,0.01%,23.5 µg/mL,
N=C(N)N [guanidine HCl],did not aid in dissociating 25OHD from DBP,,,
1-butyl-3-methylimidazolium octylsulfate,effective and generally compatible with the assay,,,
C=C1/C(=C\C=C2/CCC[C@]3(C)[C@@H]([C@H](C)/C=C/[C@H](C)C(C)C)CC[C@@H]23)C[C@@H](O)C[C@@H]1O [1α(OH)VitaminD2],,<0.01%,1.43 µg/mL,
O=C(O)CCP(CCC(=O)O)CCC(=O)O [TCEP],did not aid in dissociating 25OHD from DBP,,,
O[C@@H](CS)[C@@H](O)CS [DTT],did not aid in dissociating 25OHD from DBP,,,
"CC#N [Acetonitrile, acetonitrile]",ineffective release reagents at concentrations that were tolerable in the assay,,,
Triton X-100,,,,tolerance in the assay [1]: not tolerated in the assay
C=C1CC[C@H](O)C/C1=C/C=C1\CCC[C@]2(C)[C@@H]([C@H](C)CCCC(C)(C)O)CC[C@@H]12 [25(OH)VitaminD3],,100%,0.00175 µg/mL,
O=C(O)CN(CCN(CC(=O)O)CC(=O)O)CC(=O)O [EDTA],did not aid in dissociating 25OHD from DBP,,,
C=C1/C(=C\C=C2/CCC[C@]3(C)[C@@H]([C@H](C)CCCC(C)C)CC[C@@H]23)C[C@@H](O)C[C@@H]1O [1α(OH)VitaminD3],,0.04%,4.03 µg/mL,

Compound,release of 25OHD from DBP and maintaining 25OHD availability for antibody binding [1],% cross-reactivity [2],ED50 [2],further results
"C=C1/C(=C\C=C2/CCC[C@]3(C)[C@@H]([C@H](C)CCCC(C)(C)O)CC[C@@H]23)C[C@@H](O)C[C@@H]1O [1,25(OH)2VitaminD3]",,27.9%,0.00627 µg/mL,"% cross-reactivity ([2]; listed as 1,25(OH)2D3): 28%"
CCCCn1cc[n+](C)c1.F[B-](F)(F)F [1-butyl-3-methylimidazolium tetrafluoroborate],effective and generally compatible with the assay,,,
C[C@H](CCC(=O)NCCC[N+](C)(C)CCCS(=O)(=O)[O-])[C@H]1CC[C@H]2[C@@H]3[C@H](O)C[C@@H]4C[C@H](O)CC[C@]4(C)[C@H]3C[C@H](O)[C@]12C [CHAPS],did not aid in dissociating 25OHD from DBP,,,
"C=C1/C(=C\C=C2/CCC[C@]3(C)[C@@H]([C@H](C)/C=C/[C@H](C)C(C)(C)O)CC[C@@H]23)C[C@@H](O)C[C@@H]1O [1,25(OH)2VitaminD2]",,94.1%,0.00186 µg/mL,"% cross-reactivity ([2]; listed as 1,25(OH)2D2): 94%"
"C=C1CCC(O)C/C1=C\C=C1\CCCC2(C)C1CCC2C(C)CCC(O)C(C)(C)O (stereo not drawn) [24,25(OH)2VitaminD3]",,1.25%,0.14 µg/mL,"detection by the anti-25OHD antibody ([2]; 25OHD assay): neither the parent vitamin compounds nor the 24,25(OH)2VitaminD3 metabolite was detected to any appreciable degree"
O=C([O-])c1ccccc1O.[Na+] [sodium salicylate],effective and generally compatible with the assay,,,preventing 25OHD re-uptake by DBP or binding to other cellular proteins/lipids [1]: appeared to be effective; effect towards dissociation of 25OHD from DBP [1]: did not show a large effect
C=C1CC[C@H](O)C/C1=C/C=C1\CCC[C@]2(C)[C@@H]([C@H](C)/C=C/[C@H](C)C(C)(C)O)CC[C@@H]12 [25(OH)VitaminD2],,87.94%,0.00199 µg/mL,% cross-reactivity ([2]; listed as 25OHD2): 88%
CC(C)O [2-isopropanol],ineffective release reagents at concentrations that were tolerable in the assay,,,
C=C1CC[C@H](O)C/C1=C/C=C1\CCC[C@]2(C)[C@@H]([C@H](C)/C=C/[C@H](C)C(C)C)CC[C@@H]12 [Vitamin D2],,0.11%,1.643 µg/mL,
NP-40,,,,tolerance in the assay [1]: not tolerated in the assay
CO [methanol],ineffective release reagents at concentrations that were tolerable in the assay,,,
CCCCCCCCCCCCCC[N+](C)(C)CCCS(=O)(=O)[O-] [Zwittergent 3-14],,,,tolerance in the assay [1]: not tolerated in the assay
CCCC[n+]1ccc(C)cc1.F[B-](F)(F)F,effective and generally compatible with the assay,,,time after manufacture until dissociation buffer became unreliable [3]: ≤ 7 days; pH of the dissociation buffer ([3]; after 1.5 days): 4.7; pH of the dissociation buffer ([3]; after 4 days): 4.07; pH of the dissociation buffer ([3]; after 7 day): 3.46; pH of the dissociation buffer ([3]; after 8 days): 2.79; pH of the dissociation buffer ([3]; after 9 days): 2.43; pH of the dissociation buffer ([3]; freshly made): 5.2
"CCCCCCCCCCCCOS(=O)(=O)[O-].[Na+] [SDS, sodium dodecyl sulfate]",did not aid in dissociating 25OHD from DBP,,,
CCO [ethanol],ineffective release reagents at concentrations that were tolerable in the assay,,,
